Assay results published in patent publication US20200399308A1, “COMPOUNDS AND METHODS FOR ELICITING ANTIMICROBIAL ACTIVITY” (Technion Research & Development Foundation Limited, priority 2018, published 2020).
Non-standard residues stand in square brackets, D forms with d. Residues, ends and D or L forms follow the SMILES beside them. *: point of attachment. 12Ado = NCCCCCCCCCCCC(=O)O; Decanoyl = CCCCCCCCCC(=O)*

Assays:
[1] = Charge at physiological pH (Q); assay type: physicochemical
[2] = Hydrophobicity (H) by HPLC elution from C18 column; assay type: physicochemical; conditions: percentage of acetonitrile required for elution
[3] = Critical aggregation concentration by light scattering in PBS; assay type: physicochemical; conditions: light scattering in phosphate-buffered saline
Protocol: (§1) Organization of the compounds in aqueous solution was assessed by light-scattering measurements in phosphate buffered saline (PBS; 10 mM Na2HPO4, 150 mM NaCl, pH=7.0). Hemolytic assays were performed as described elsewhere, using fresh mouse red blood cells.
(§2) The mean value (±SD) is shown for Compound C; Minimum inhibitory concentration (MIC) of compounds required to inhibit bacterial proliferation after overnight incubation.

Hemolytic assay = assay type: cell-based; conditions: fresh mouse red blood cells (1%); hemolysis of 50% of mouse red blood cells (1%) after 3 hours in PBS; read-out: LC50, fifty percent lethal concentration (hemolysis)
Protocol: as §1, §2

Escherichia coli 25922 [4] = assay: Minimal inhibitory concentration; assay type: cell-based; conditions: 25922
Protocol: (§3) Minimal inhibitory concentrations (MICs) were determined as previously described. […] MICs were determined by microdilution susceptibility testing in 96-well plates (by Nunc) using inocula of 10^5 bacteria per ml. Cell populations were evaluated by optical density measurements at 620 nm and were calibrated against a set of standards. Hundred (100) μl of a bacterial suspension were added to 100 μl of culture medium (control) or to 100 μl of culture medium containing various tested compound concentrations in 2-fold serial dilutions. Inhibition of proliferation was determined by optical density measurements at 620 nm after an incubation period of 24 hours at 37° C. Data were obtained from ≥2 independent experiments performed in duplicate.
as §2

Escherichia coli ML35p = assay: Minimal inhibitory concentration; assay type: cell-based; conditions: Ec ML35p, overnight incubation
Protocol: as §3, §2

[5] = tested on: Klebsiella pneumoniae 1287; assay: Minimal inhibitory concentration; assay type: cell-based; conditions: 1287
Protocol: as §3, §2

[6] = tested on: Klebsiella pneumoniae C2 (carbapenemase 2-producing strain); assay: Minimal inhibitory concentration; assay type: cell-based
Protocol: as §3, §2

[7] = tested on: Pseudomonas aeruginosa 11662; assay: Minimal inhibitory concentration; assay type: cell-based; conditions: 11662
Protocol: as §3, §2

[8] = tested on: Pseudomonas aeruginosa 11816; assay: Minimal inhibitory concentration; assay type: cell-based; conditions: 11816
Protocol: as §3, §2

[9] = tested on: Salmonella enterica serovar Choleraesuis 7308; assay: Minimal inhibitory concentration; assay type: cell-based; conditions: CHOLERAESUIS / SC7308
Protocol: as §3, §2

[10] = tested on: Salmonella enterica serovar Typhimurium 14028; assay: Minimal inhibitory concentration; assay type: cell-based
Protocol: as §3, §2

[11] = tested on: Escherichia coli mutant ML-35p; assay: Outer and cytoplasmic membrane permeabilization (nitrocefin / ONPG); assay type: cell-based; conditions: E. coli ML-35p, buffer, 16 minutes after addition
Protocol: Membrane permeabilization was assessed using E. coli ML-35p as described elsewhere, to monitor the ability of the compounds to perturb the outer and/or cytoplasmic membranes. Reported data were obtained from ≥2 independent experiments performed in duplicate.
Additional support for this view was obtained by comparing the compounds' susceptibility to damage gram-negative bacteria membranes, using the E. coli mutant ML-35p. Widely described in the literature, the mutant was considered herein as representative of all gram-negative bacteria, rather than a specific species. This mutant is constitutive for cytoplasmic β-galactosidase, lacks lactose permease, and expresses a plasmid-encoded periplasmic β-lactamase. Two chromogenic reporter molecules (nitrocefin and 2-nitrophenyl β-d-galactopyranoside, respectively, absorbing at 486 and 420 nm) were used to monitor permeabilization of the outer membrane and/or cytoplasmic membrane in a single assay.

Escherichia coli 25922 [12] = assay: Mouse thigh infection model; assay type: in vivo; conditions: normal mice inoculated intramuscularly, treated s.c. 1 hour thereafter, CFU 24 hours post-treatment
Protocol: Mouse thigh infection model was afforded from normal ICR mice, which were inoculated intramuscularly and treated subcutaneously 1 hour thereafter with a tested compound or polymyxin B (PMB; Sigma-Aldrich) as described elsewhere. P values were calculated using a 1-tailed t test (assuming unequal variance). A P value of <0.05 is considered statistically significant.

E. coli 25922 = assay: Ethidium bromide permeability assay; assay type: cell-based, Escherichia coli; conditions: t=20 minutes
Protocol: Ethidium bromide permeability assays were performed as follows: Overnight cultures were adjusted to 1.0 OD (600 nm) and centrifuged for 5 minutes at 15,000 g. Pellets were washed twice with PBS containing 0.5% glucose, resuspended, and incubated for 10 minutes at 37° C. with shaking. A […] suspension was mixed in a black 96-well plate with […] of the tested compound and ethidiumbromide (1 μg/ml), and the fluorescence was recorded (excitation 535 nm, emission 590 nm) for up to 30 minutes at 37° C. with shaking. Data were obtained from at least 2 independent experiments.
(FU denotes fluorescence units; triangles denote Compound B, circles denote PMB, squares denote untreated control; error bars=SD).

[13] = 20 mg/kg body weight; reported; cited from earlier work

Compound | Q, charge at physiological pH [1] | H, hydrophobicity [2] | CAC, critical aggregation concentration [3] | CC50 at 3 h (Hemolytic assay) | MIC (Escherichia coli 25922 [4]) | MIC (Escherichia coli ML35p) | MIC [5] | MIC [6] | MIC [7] | MIC [8] | MIC [9] | MIC [10] | cytoplasmic membrane permeabilization [11] | outer membrane permeabilization [11] | reduction of the number of inoculated E. coli (Escherichia coli 25922 [12]) | CM permeability to ethidium bromide (E. coli 25922) | mortality [13]
CCCCCCCCCC(=O)NC(CCCCN)C(=O)NC(CCCCN)C(=O)NCCCCCCCCCCCC(=O)NC(CCCCN)C(N)=O (centres unmarked) [Compound A] (Decanoyl-KK[12Ado]K-NH2; configuration not given here) | 3 | 44% | >100 µM | > 100 µM | > 50 µM | > 50 µM | > 50 µM | > 50 µM | > 50 µM | > 50 µM | > 50 µM | > 50 µM | similarly unable to permeabilize the cytoplasmic membrane at least up to approximately 10 μM | similarly potent in inducing outer membrane permeabilization | – | – | –
polymyxin B [PMB] | – | – | – | – | – | – | – | – | – | – | – | – | – | – | 64% | increased significantly more than Compound B | zero
